In US8163793B2, “Proline derivatives” (Hoffman-La Roche Inc., priority 2009, dated 2012):

Key:
Cathepsin S = Cathepsin S (UniProt P25774); experiment: Cathepsin enzyme inhibition assay (fluorogenic peptide substrate Z-Val-Val-Arg-AMC), Cathepsin S; type: biochemical, human and mouse; settings: enzyme 1 nM, substrate 20 μM, pH 6.5; read-out: CatS IC50
In short: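 Compounds were combined with 1 nM human or mouse enzyme, and substrate then started the reaction. The buffer was potassium phosphate (100 mM, pH 6.5) containing EDTA-Na 5 mM, Triton X-100 0.001% and […] 5 mM.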

Cat L = Cat L (UniProt P07711); experiment: Cathepsin enzyme inhibition assay (fluorogenic peptide substrate Z-Val-Val-Arg-AMC), Cathepsin L; type: biochemical, human and mouse; settings: enzyme 1 nM, substrate 20 μM, pH 6.5; read-out: CatL IC50
In short: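 Fluorogenic cleavage of Z-Val-Val-Arg-AMC (20 μM) by 1 nM Cat L was monitored at ex 360/em 465 nm for 20 min, the linear phase. The buffer was 100 mM potassium phosphate pH 6.5 with 5 mM EDTA and DTT. IC50 values were derived by standard methods, in μM.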

Question: With `N#CC1(NC(=O)[C@@H]2C[C@@H](S(=O)(=O)c3ccccc3)CN2C(=O)c2ccccc2)CC1` [Example 73, (2S,4R)-4-Benzenesulfonyl-1-benzoyl-pyrrolidine-2-carboxylic acid (1-cyano-cyclopropyl)-amide] as the compound, how does the IC50 (Cathepsin S) read?
Answer: The IC50 was 12.7 nM.

Question: And the IC50 (Cat L)?
Answer: The IC50 was ≥ 25000 nM.

Question: Which results are given for `N#CC1(NC(=O)[C@@H]2C[C@@H](S(=O)(=O)c3ccccc3)CN2C(=O)C2CCOCC2)CC1` [Example 74, (2S,4R)-4-Benzenesulfonyl-1-(tetrahydro-pyran-4-carbonyl)-pyrrolidine-2-carboxylic acid (1-cyano-cyclopropyl)-amide]?
Answer: IC50 (Cathepsin S): 6.6 nM; IC50 (Cat L): ≥ 25000 nM

Question: With `N#CC1(NC(=O)[C@@H]2C[C@@H](S(=O)(=O)c3ccccc3Cl)CN2C(=O)c2ccccc2)CC1` [Example 75, (2S,4R)-1-Benzoyl-4-(2-chloro-benzenesulfonyl)-pyrrolidine-2-carboxylic acid (1-cyano-cyclopropyl)-amide] as the compound, how does the IC50 (Cathepsin S) read?
Answer: Its IC50 is 0.8 nM.

Question: What about the IC50 (Cat L) of the same compound?
Answer: The IC50 was 6790 nM.

Question: What does the source list for `N#CC1(NC(=O)[C@@H]2C[C@@H](S(=O)(=O)c3ccccc3Cl)CN2C(=O)c2ccc(F)cc2)CC1` [Example 76, (2S,4R)-4-(2-Chloro-benzenesulfonyl)-1-(4-fluoro-benzoyl)-pyrrolidine-2-carboxylic acid (1-cyano-cyclopropyl)-amide]?
Answer: IC50 (Cathepsin S): 1.4 nM; IC50 (Cat L): 8800 nM

Question: `N#CC1(NC(=O)[C@@H]2C[C@@H](S(=O)(=O)c3ccccc3Cl)CN2C(=O)C2CCCCC2)CC1` [Example 77, (2S,4R)-4-(2-Chloro-benzenesulfonyl)-1-cyclohexanecarbonyl-pyrrolidine-2-carboxylic acid (1-cyano-cyclopropyl)-amide] was tested. Which IC50 (Cathepsin S) did it give?
Answer: The IC50 was 0.2 nM.

Question: And the IC50 (Cat L)?
Answer: Its IC50 is 8250 nM.

Question: Which IC50 (Cathepsin S) does the source give for `N#CC1(NC(=O)[C@@H]2C[C@@H](S(=O)(=O)c3ccccc3Cl)CN2C=O)CC1` [Example 78, (2S,4R)-4-(2-Chloro-benzenesulfonyl)-1-formyl-pyrrolidine-2-carboxylic acid (1-cyano-cyclopropyl)-amide] here?
Answer: The IC50 was 18.5 nM.

Question: What about the IC50 (Cat L) of the same compound?
Answer: Its IC50 is ≥ 25000 nM.

Question: For `CC(=O)N1C[C@H](S(=O)(=O)c2ccccc2Cl)C[C@H]1C(=O)NC1(C#N)CC1` [Example 79, (2S,4R)-1-Acetyl-4-(2-chloro-benzenesulfonyl)-pyrrolidine-2-carboxylic acid (1-cyano-cyclopropyl)-amide], which IC50 (Cathepsin S) is on record?
Answer: The IC50 was 1.4 nM.

Question: What about the IC50 (Cat L) of the same compound?
Answer: Its IC50 is 29700 nM.

Question: With `N#CC1(NC(=O)[C@@H]2C[C@@H](S(=O)(=O)c3ccccc3Cl)CN2C(=O)C(F)(F)F)CC1` [Example 80, (2S,4R)-4-(2-Chloro-benzenesulfonyl)-1-(2,2,2-trifluoro-acetyl)-pyrrolidine-2-carboxylic acid (1-cyano-cyclopropyl)-amide] as the compound, how does the IC50 (Cathepsin S) read?
Answer: Its IC50 is 0.8 nM.

Question: What about the IC50 (Cat L) of the same compound?
Answer: Its IC50 is 9770 nM.

Question: What does the source list for `CN1CCC[C@H]1C(=O)N1C[C@H](S(=O)(=O)c2ccccc2Cl)C[C@H]1C(=O)NC1(C#N)CC1` [Example 81, (R)-4-(2-Chloro-benzenesulfonyl)-1-((S)-1-methyl-pyrrolidine-2-carbonyl)-pyrrolidine-2-carboxylic acid (1-cyano-cyclopropyl)-amide formiate]?
Answer: IC50 (Cathepsin S): 3.2 nM; IC50 (Cat L): 6030 nM

Question: Which IC50 (Cathepsin S) does the source give for `CN1CCC(C(=O)N2C[C@H](S(=O)(=O)c3ccccc3Cl)C[C@H]2C(=O)NC2(C#N)CC2)CC1` [Example 82, (2S,4R)-4-(2-Chloro-benzenesulfonyl)-1-(1-methyl-piperidine-4-carbonyl)-pyrrolidine-2-carboxylic acid (1-cyano-cyclopropyl)-amide] here?
Answer: Its IC50 is 8.7 nM.

Question: What about the IC50 (Cat L) of the same compound?
Answer: The IC50 was 6800 nM.

Question: For `CCN1C[C@H](S(=O)(=O)c2ccccc2Cl)C[C@H]1C(=O)NC1(C#N)CC1` [Example 83, (2S,4R)-4-(2-Chloro-benzenesulfonyl)-1-ethyl-pyrrolidine-2-carboxylic acid (1-cyano-cyclopropyl)-amide], which IC50 (Cathepsin S) is on record?
Answer: The IC50 was 30.5 nM.

Question: What about the IC50 (Cat L) of the same compound?
Answer: Its IC50 is 62100 nM.

Question: How did the IC50 (Cathepsin S) turn out when `N#CC1(NC(=O)[C@@H]2C[C@@H](S(=O)(=O)c3ccccc3Cl)CN2C2CCC2)CC1` [Example 84, (2S,4R)-4-(2-Chloro-benzenesulfonyl)-1-cyclobutyl-pyrrolidine-2-carboxylic acid (1-cyano-cyclopropyl)-amide] was run?
Answer: The IC50 was 55 nM.

Question: And the IC50 (Cat L)?
Answer: Its IC50 is ≥ 25000 nM.

Question: Which IC50 (Cathepsin S) does the source give for `N#CC1(NC(=O)[C@@H]2C[C@@H](S(=O)(=O)c3ccccc3Cl)CN2C2CCCCC2)CC1` [Example 85, (2S,4R)-4-(2-Chloro-benzenesulfonyl)-1-cyclohexyl-pyrrolidine-2-carboxylic acid (1-cyano-cyclopropyl)-amide] here?
Answer: Its IC50 is 9.4 nM.

Question: And the IC50 (Cat L)?
Answer: The IC50 was ≥ 25000 nM.

Question: `N#CC1(NC(=O)[C@@H]2C[C@@H](S(=O)(=O)c3ccccc3Cl)CN2Cc2ccncc2)CC1` [Example 86, (2S,4R)-4-(2-Chloro-benzenesulfonyl)-1-pyridin-4-ylmethyl-pyrrolidine-2-carboxylic acid (1-cyano-cyclopropyl)-amide] was tested. Which IC50 (Cathepsin S) did it give?
Answer: The IC50 was 23 nM.

Question: And the IC50 (Cat L)?
Answer: The IC50 was 14600 nM.

Question: `N#CC1(NC(=O)[C@@H]2C[C@@H](S(=O)(=O)c3ccccc3Cl)CN2CCc2ccccc2)CC1` [Example 87, (2S,4R)-4-(2-Chloro-benzenesulfonyl)-1-phenethyl-pyrrolidine-2-carboxylic acid (1-cyano-cyclopropyl)-amide] was tested. Which IC50 (Cathepsin S) did it give?
Answer: The IC50 was 37.5 nM.

Question: And the IC50 (Cat L)?
Answer: Its IC50 is 4720 nM.

Question: With `N#CC1(NC(=O)[C@@H]2C[C@@H](S(=O)(=O)c3ccccc3Cl)CN2CC(F)F)CC1` [Example 88, (2S,4R)-4-(2-Chloro-benzenesulfonyl)-1-(2,2-difluoro-ethyl)-pyrrolidine-2-carboxylic acid (1-cyano-cyclopropyl)-amide] as the compound, how does the IC50 (Cathepsin S) read?
Answer: Its IC50 is 275 nM.

Question: And the IC50 (Cat L)?
Answer: The IC50 was ≥ 25000 nM.

Question: Which results are given for `N#CC1(NC(=O)[C@@H]2C[C@@H](S(=O)(=O)c3ccccc3Cl)CN2CC(F)(F)F)CC1` [Example 89, (2S,4R)-4-(2-Chloro-benzenesulfonyl)-1-(2,2,2-trifluoro-ethyl)-pyrrolidine-2-carboxylic acid (1-cyano-cyclopropyl)-amide]?
Answer: IC50 (Cathepsin S): 110 nM; IC50 (Cat L): ≥ 25000 nM

Question: `CC(CN1C[C@H](S(=O)(=O)c2ccccc2Cl)C[C@H]1C(=O)NC1(C#N)CC1)C(F)(F)F` (stereo partly drawn) [Example 90, (2S,4R)-4-(2-Chloro-benzenesulfonyl)-1-(3,3,3-trifluoro-2-methyl-propyl)-pyrrolidine-2-carboxylic acid (1-cyano-cyclopropyl)-amide] was tested. Which IC50 (Cathepsin S) did it give?
Answer: The IC50 was 84.5 nM.

Question: What about the IC50 (Cat L) of the same compound?
Answer: Its IC50 is ≥ 25000 nM.

Question: For `N#CC1(NC(=O)[C@@H]2C[C@@H](S(=O)(=O)c3ccccc3Cl)CN2CCC(F)(F)F)CC1` [Example 91, (2S,4R)-4-(2-Chloro-benzenesulfonyl)-1-(3,3,3-trifluoro-propyl)-pyrrolidine-2-carboxylic acid (1-cyano-cyclopropyl)-amide], which IC50 (Cathepsin S) is on record?
Answer: Its IC50 is 120 nM.

Question: What about the IC50 (Cat L) of the same compound?
Answer: The IC50 was ≥ 25000 nM.

Question: Which results are given for `N#CC1(NC(=O)[C@@H]2C[C@@H](S(=O)(=O)c3ccccc3Cl)CN2CC(F)(F)C(F)(F)F)CC1` [Example 92, (2S,4R)-4-(2-Chloro-benzenesulfonyl)-1-(2,2,3,3,3-pentafluoro-propyl)-pyrrolidine-2-carboxylic acid (1-cyano-cyclopropyl)-amide]?
Answer: IC50 (Cathepsin S): 41 nM; IC50 (Cat L): 61700 nM

Question: What does the source list for `CN1C[C@H](S(=O)(=O)c2ccccc2Cl)C[C@H]1C(=O)NC1(C#N)CC1` [Example 93, (2S,4R)-4-(2-Chloro-benzenesulfonyl)-1-methyl-pyrrolidine-2-carboxylic acid (1-cyano-cyclopropyl)-amide]?
Answer: IC50 (Cathepsin S): 966 nM; IC50 (Cat L): ≥ 25000 nM

Question: With `CN1C[C@H](S(=O)(=O)c2ccccc2Cl)C[C@H]1C(=O)N(C)C1(C#N)CC1` [Example 94, (2S,4R)-4-(2-Chloro-benzenesulfonyl)-1-methyl-pyrrolidine-2-carboxylic acid (1-cyano-cyclopropyl)-methyl-amide Formiate] as the compound, how does the IC50 (Cathepsin S) read?
Answer: Its IC50 is 945 nM.

Question: And the IC50 (Cat L)?
Answer: The IC50 was 40000 nM.

Question: How did the IC50 (Cathepsin S) turn out when `COC(=O)N1C[C@H](S(=O)(=O)c2ccccc2Cl)C[C@H]1C(=O)NC1(C#N)CC1` [Example 95, (2S,4R)-4-(2-Chloro-benzenesulfonyl)-2-(1-cyano-cyclopropylcarbamoyl)-pyrrolidine-1-carboxylic acid methyl ester] was run?
Answer: Its IC50 is 7.6 nM.

Question: What about the IC50 (Cat L) of the same compound?
Answer: Its IC50 is ≥ 25000 nM.

Question: What does the source list for `CCOC(=O)N1C[C@H](S(=O)(=O)c2ccccc2Cl)C[C@H]1C(=O)NC1(C#N)CC1` [Example 96, (2S,4R)-4-(2-Chloro-benzenesulfonyl)-2-(1-cyano-cyclopropylcarbamoyl)-pyrrolidine-1-carboxylic acid ethyl ester]?
Answer: IC50 (Cathepsin S): 2.6 nM; IC50 (Cat L): 31500 nM

Question: What does the source list for `CC(C)OC(=O)N1C[C@H](S(=O)(=O)c2ccccc2Cl)C[C@H]1C(=O)NC1(C#N)CC1` [Example 97, (2S,4R)-4-(2-Chloro-benzenesulfonyl)-2-(1-cyano-cyclopropylcarbamoyl)-pyrrolidine-1-carboxylic acid Isopropyl Ester]?
Answer: IC50 (Cathepsin S): 2.4 nM; IC50 (Cat L): 22800 nM

Question: `N#CC1(NC(=O)[C@@H]2C[C@@H](S(=O)(=O)c3ccccc3Cl)CN2C(=O)OC2CCCC2)CC1` [Example 98, (2S,4R)-4-(2-Chloro-benzenesulfonyl)-2-(1-cyano-cyclopropylcarbamoyl)-pyrrolidine-1-carboxylic acid Cyclopentyl Ester] was tested. Which IC50 (Cathepsin S) did it give?
Answer: The IC50 was 1.1 nM.

Question: And the IC50 (Cat L)?
Answer: Its IC50 is 15700 nM.

Question: With `N#CC1(NC(=O)[C@@H]2C[C@@H](S(=O)(=O)c3ccccc3Cl)CN2C(=O)Oc2ccc(F)cc2)CC1` [Example 99, (2S,4R)-4-(2-Chloro-benzenesulfonyl)-2-(1-cyano-cyclopropylcarbamoyl)-pyrrolidine-1-carboxylic acid 4-fluoro-phenyl Ester] as the compound, how does the IC50 (Cathepsin S) read?
Answer: Its IC50 is 2.6 nM.

Question: And the IC50 (Cat L)?
Answer: Its IC50 is ≥ 25000 nM.

Question: What does the source list for `N#CC1(NC(=O)[C@@H]2C[C@@H](S(=O)(=O)c3ccccc3C(F)(F)F)CN2C=O)CC1` [Example 100, (2S,4R)-1-Formyl-4-(2-trifluoromethyl-benzenesulfonyl)-pyrrolidine-2-carboxylic acid (1-cyano-cyclopropyl)-amide]?
Answer: IC50 (Cathepsin S): 7.7 nM; IC50 (Cat L): ≥ 25000 nM
